According to patent US20210047278A1, “E3 UBIQUITIN LIGASE AGONISTS, PHARMACEUTICAL COMPOSITIONS INCLUDING THE E3 UBIQUITIN LIGASE AGONISTS, RELATED METHODS OF USE” (FRED HUTCHINSON CANCER RESEARCH CENTER, priority 2018, published 2021):
Where two headings read alike, the source gives them in different places.

What was measured:
Type in all cases: binding
[1] = target: T1, FBW7^ARG (RLFBW7) alone (Homo sapiens, UniProt Q969H0, R505L); assay: Counterscreen 1 ALPHAscreen with FBW7^ARG alone (CSRUN1/DCSRUN1); settings: dose-response counterscreen; for Emax: read-out: RLFBW7 ACT DCSRUN1 Averaged Max % Response
T1 construct: GST (TEV site and flexible linker) (N, cleaved yes); made in house; host or cells: SF9 insect cells (baculovirus)
Summary of the method: (§1)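 Dose-response in triplicate, 10 points in 3-fold steps with a top concentration near 87 μM. Each counterscreen lacks one partner (FBW7^ARG alone or pCycE alone), giving signal not due to the binding pair. Activity is % activation versus WT-FBW7+pCycE; positive threshold 10%.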

[2] = target: T2, FBW7^ARG+pCycE (Homo sapiens, UniProt Q969H0, R505L); assay: FBW7^ARG-cyclin E agonist ALPHAscreen (primary PRUN, confirmation CRUN1, dose-response DRUN); settings: for EC50 / Emax: DRUN dose-response; for Emax: relative to WT-FBW7+pCycE, read-out: FBW7 ACT Averaged Max % Response
T2 construct: GST (TEV site and flexible linker) (N, cleaved yes); made in house; host or cells: SF9 insect cells (baculovirus)
Summary of the method: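 Compounds tested once at 26.1 μM (primary; confirmation in triplicate) or in a triplicate 10-point 3-fold dilution up to ~87 μM (dose-response). Bridging of 25 nM mutant FBW7 R505L to 25 nM biotinylated phosphorylated cyclin E peptide detected by Ni-acceptor/streptavidin-donor ALPHA signal, normalized to WT-FBW7+pCycE.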

[3] = system: pCycE alone; assay: Counterscreen 2 ALPHAscreen with cyclin E phosphopeptide alone (CSRUN2/DCSRUN2); settings: for CyCEP ACT DCSRUN2 Averaged Max % Response: activation relative to WT-FBW7+pCycE, averaged maximum; for EC50: dose-response, triplicate, 10 point 3-fold dilutional series, read-out: CyCEP ACT DCSRUN2 Final EC50
Summary of the method: as §1

[4] = raw curve fit, read-out: RLFBW7 ACT DCSRUN1 EC50 Curve Fit Raw
[5] = read-out: RLFBW7 ACT DCSRUN1 Final EC50
[6] = raw curve fit, read-out: FBW7 ACT EC50 Curve Fit Raw, Molar
[7] = triplicate, 10 point 3-fold dilution, max approx. 87 μM, read-out: FBW7 ACT Final EC50, Molar
[8] = confirmation assay, triplicate, single concentration 26.1 μM, read-out: FBW7 ACT CRUN1 Avg % Response and Stdev
[9] = primary screen, 1536-well, 26.1 μM, FBW7^ARG + pCycE degron peptide, high control wt-FBW7+pCycE, read-out: FBW7 ACT PRUN % Response

T2 sequence (Q969H0 64-707 R505L): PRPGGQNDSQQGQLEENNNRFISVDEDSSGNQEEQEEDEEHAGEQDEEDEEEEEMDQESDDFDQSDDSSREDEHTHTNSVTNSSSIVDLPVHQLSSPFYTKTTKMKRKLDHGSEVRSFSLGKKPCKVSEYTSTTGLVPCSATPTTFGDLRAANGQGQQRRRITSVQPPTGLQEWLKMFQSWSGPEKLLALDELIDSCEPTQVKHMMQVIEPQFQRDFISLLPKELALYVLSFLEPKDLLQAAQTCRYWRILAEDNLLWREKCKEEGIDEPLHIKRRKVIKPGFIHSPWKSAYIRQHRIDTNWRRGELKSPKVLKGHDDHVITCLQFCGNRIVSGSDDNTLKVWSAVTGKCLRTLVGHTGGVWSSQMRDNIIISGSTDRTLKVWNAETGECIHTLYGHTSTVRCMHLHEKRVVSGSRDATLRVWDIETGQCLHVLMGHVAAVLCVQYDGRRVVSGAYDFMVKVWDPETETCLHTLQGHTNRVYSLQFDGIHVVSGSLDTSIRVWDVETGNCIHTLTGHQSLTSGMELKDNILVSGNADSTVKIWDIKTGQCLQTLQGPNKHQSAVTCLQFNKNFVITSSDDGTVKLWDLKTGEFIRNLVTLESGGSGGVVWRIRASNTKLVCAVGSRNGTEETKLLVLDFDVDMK
T2 sequence (P63208 2-163 partner): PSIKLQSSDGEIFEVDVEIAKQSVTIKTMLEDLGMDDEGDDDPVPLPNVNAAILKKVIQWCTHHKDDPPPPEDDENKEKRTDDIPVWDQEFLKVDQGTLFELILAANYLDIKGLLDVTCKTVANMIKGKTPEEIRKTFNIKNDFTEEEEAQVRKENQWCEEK
T1 sequence (Q969H0 64-707 R505L): as the sequence (Q969H0 64-707 R505L) above
T1 sequence (P63208 2-163 partner): as the sequence (P63208 2-163 partner) above

Row | EC50 [1, 4] [µM] | Emax [1] [%] | EC50 [1, 5] [µM] | EC50 [2, 6] [µM] | Emax [2] [%] | EC50 [2, 7] [µM] | activation at 26.1 µM [2, 8] [%] | activation at 26.1 µM [2, 9] [%] | RLFBW7 ACT DCSRUN1 Hill Slope [1] | Structure (SMILES) | CyCEP ACT DCSRUN2 Averaged Max % Response [3] [%] | EC50 [3] [µM]
1 | 0.0369 | 1.05 | > 65.3 | 26.7 | 33.6 | > 65.3 | 9.26 ± 0.67 | 11.9 |  | COc1cccc(C=O)c1OC(=O)c1cccc(Cl)c1 [SR-01000242625-1] | 0.61 | > 65.3
2 | 2.2 | 0.27 | > 16.3 | 7.2 | 15.4 | > 16.3 | 7.7 ± 0.45 | 2.73 |  | CN(C)CCN(C)c1nc([C@H](N)Cc2cccc(F)c2)cc2ccc(-c3cn[nH]c3)cc12.O=C(O)C(F)(F)F [SR-00000006284-1] | 0.41 | > 16.3
3 | 75.4 | 6.24 | > 65.3 | 31.4 | 13.7 | > 65.3 | 2.14 ± 0.69 | 3.43 |  | CCN(CC)c1ccc2c(c1)OC(N)=C(C#N)C2c1ccccc1 (stereo not shown) [SR-01000320053-1] | 0.22 | > 65.3
4 | 0.0102 | 1.65 | > 72.9 | 0.0082 | 8.63 | > 72.9 | 5.32 ± 2.7 | 2.34 |  | Fc1ccccc1CSc1nnnn1-c1ccccc1F [SR-01000432842-1] | 2.47 | > 72.9
5 | 83.6 | 2.08 | > 65.3 | 2.6 | 12.1 | > 65.3 | 4.15 ± 0.5 | 2.76 |  | Cc1ncn(-c2ccc(Nc3cc(-c4nocc4-c4ccccn4)ccn3)cc2)n1.O=C(O)C(F)(F)F [SR-00000006872-1] | 0.34 | > 65.3
6 | 6.3 | 0.2 | > 65.3 | 19.1 | 18 | > 65.3 | 4.43 ± 0.25 | 4.09 |  | COc1ccccc1-c1ccc(=O)n(CC(=O)Nc2ccc(C(=O)N3CCCC3)cc2)n1 [SR-01000332536-1] | 0.12 | > 65.3
7 | 12.8 | 0.69 | > 65.3 | 18.6 | 19.3 | > 65.3 | 2.52 ± 0.29 | 2.52 |  | COc1cc(-c2ccnc(N)n2)ccc1NC(=O)[C@H]1COc2ccccc2O1.O=C(O)C(F)(F)F [SR-00000003239-1] | 0.15 | > 65.3
8 | 0.0059 | -0.274 | > 65.3 | 18 | 23.1 | > 65.3 | 5.69 ± 0.17 | 7.62 |  | COc1ccccc1-c1ccc(N2CCN(C(=O)COc3ccccc3)CC2)nn1 [SR-01000920770-1] | 0.32 | > 65.3
9 | 42.4 | 101 | 39.8 | 15.5 | 26.6 | > 75.4 | 10.7 ± 0.12 | 3.41 | 3.57 | C/C(=N\Nc1cccc(C(F)(F)F)c1)C1CC1 [SR-01000041073-1] | 0.22 | > 75.4
10 | 0.229 | 0.83 | > 65.3 | 20.3 | 18.1 | > 65.3 | 1.92 ± 0.3 | 6.66 |  | O=C(c1ccco1)N1CCN(c2ncc(-c3ccccc3CO)n3ccnc23)CC1 [SR-01000381408-1] | 0.18 | > 65.3
11 | 6.6 | 29.7 | > 65.3 | 4 | 8.53 | > 65.3 | 4.91 ± 0.39 | 5.73 |  | Cc1ccc(-c2cccc3cnc(Nc4ccc(-n5cnc(-c6ccccn6)n5)cc4)nc23)cn1.O=C(O)C(F)(F)F [SR-00000008492-1] | 0.22 | > 65.3
12 | 14.2 | 8.96 | > 65.3 | 17.4 | 16.3 | > 65.3 | 3.1 ± 0.38 | 2.07 |  | CCN1C(=O)c2cccc3c(N4CCCC4)ccc(c23)C1=O [SR-01000221568-1] | 0.35 | > 65.3
